According to patent publication US12570657B2, “Mesylate salts of heterocyclic cytokinins, compositions containing these derivatives and use thereof” (UNIVERZITA PALACKEHO V OLOMOUCI, priority 2020, dated 2026):
pIC50: −log10 of the molar value. Read-outs that look alike come from different tables or passages of the source.

Tests used:
[1] = test system: winter wheat leaf segments; test: Senescence bioassay: retention of chlorophyll in excised winter wheat leaf tips; format: in vivo, Triticum aestivum cv. Hereward; details: for activity (%) [10^−4 mol · l^−1 BAP = 100%]: chlorophyll retention at concentration with highest activity, 10^−4 M BAP = 100%
Experimental: Seeds of winter wheat, Triticum aestivum cv. Hereward, were washed under running water for 24 hours and then sown on vermiculite soaked with Knop's solution. They were placed in a growth chamber at 25° C. with a 16/8 h light/dark period at 50 μmol·m^−2·s^−1. After 7 days, the first leaf was fully developed and the second leaf had started to grow. A tip section of the first leaf, approximately 35 mm long, was removed from 5 seedlings and trimmed slightly to a combined weight of 100 mg. The basal ends of the five leaf tips were placed in the wells of a microtiter polystyrene plate containing 150 μl of each tested compound solution. The entire plate was inserted into a plastic box lined with paper tissues soaked in distilled water to prevent leaf sections from drying out. After 96 h incubation in the dark at 25° C., the leaves were removed and chlorophyll extracted by heating at 80° C. for 10 min in 5 ml of 80% ethanol (v/v). The sample volume was then restored to 5 ml by the addition of 80% ethanol (v/v). The absorbance of the extract was recorded at 665 nm. In addition, chlorophyll extracts from fresh leaves and leaf tips incubated in deionised water were measured. […] Relative activity of the compound at this concentration was calculated (Tab. 3). The activity obtained for 10^−4 M 6-benzylaminopurine (BAP) was postulated as 100%. The values shown are means of five replicates and the whole experiment was repeated twice. The tested cytokinin bases were dissolved in dimethylsulfoxide (DMSO) and the solution brought up to 10^−3 M with distilled water. Cytokinin mesylate salts which are more water-soluble (BAP mesylate, meta-topolin mesylate and kinetin mesylate) could be directly dissolved to form a 10^−3 M solution in distilled water.

rose explants = test: In vitro and post vitro multiplication and rooting of rose; format: in vivo, Rosa multiflora
Experimental: The aim of this experiment was to test whether the new compounds are of practical use in tissue culture practice. The multiplication rate was investigated and the post vitro effects on rooting were examined Rosa hybrida (pot rose cultivar) was cultured in 350 ml vessels with a screw on polycarbonate lid. Each culture vessel contained 100 ml autoclaved medium (120° C., 20 min). The cultures were maintained at 23±2° C. under a 16 h photoperiod at 40 μM·m^−2 s^−1 PAR. The basal medium (BMR) contained Murashige and Skoog (1962) macroelements, microelements and vitamins, 95 μM NaFeEDTA, 555 μM myo-inositol, 111 mM sucrose, 1.332 mM glycine, 684 μM L-glutamine and 7 g/l agar. This medium was supplemented with 10 μM BAP, mT, or 3MeOBAP, or the corresponding mesylate salts. The control medium didn't contain any cytokinin After a culture period of 8 weeks, the number of induced shoots per explant was determined, as well as root number/explant and total root length/explant. The roots were removed and the explants (shoot clusters) were planted in unfertilised peat. After four weeks of acclimatising in a fog unit, root number and root length was determined. As expected, a cytokinin free medium yielded almost no new shoots. The original shoot explant grew out as a good quality single shoot that rooted very well. […] Explants growing on cytokininin mesylates were characterized by a high multiplication index (a large number of new shoots) and were more rooted in comparison with free bases. The use of cytokinin mesylates led to an increase in all monitored parameters in plant culture compared to free cytokinin bases.

[2] = test system: cytokinin-dependent tobacco callus; test: Tobacco callus biotest (stimulation of plant cell division); format: cell-based, Nicotiana tabacum L. cv. Wisconsin 38; details: for activity (%) [10^−5 mol · l^−1 BAP = 100%]: callus growth at concentration with highest activity, 10^−5 M BAP = 100%
Experimental: Stimulation effect of the cytokinin mesylates was tested in tobacco callus biotest using cytokinin dependent tobacco callus. Cytokinin-dependent tobacco callus Nicotiana tabacum L. cv. […] Subcultivation was carried out every three weeks. Fourteen days before the bioassay, the callus tissue was transferred to the media without BAP. Biological activity was determined from the increase in fresh callus weight after four weeks of cultivation. Five replicates were prepared for each cytokinin concentration and the entire test was repeated twice. […] Relative activity of the compound at this concentration was calculated (Tab. 15). The activity obtained for 10^−5 M 6-benzylaminopurine (BAP) was postulated as 100%. The cytokinin bases to be tested were dissolved in dimethylsulfoxide (DMSO) and the solution brought up to 10^−3 M with distilled water. The mesylate salts were dissolved directly in distilled water.

[3] = Aqueous solubility: concentration of saturated solution by HPLC; format: physicochemical; details: thermodynamic from solid; saturated solution in water, cytokinin mesylate; read-out: c of CK mesylate
Experimental: Aqueous solubility was measured using the following protocol. Supersaturated solution of meta-topolin mesylate salt was prepared. The solutions were filtered off from visible undissolved particles of the salt to obtain homogenic saturated solution. Saturated solution was diluted 1:10 000 and measured using HPLC Alliance Waters 2690 with C18 Symmetry column with the diameter 2.1 mm and 150 mm length with a porosity of 5 μm. The sample was dissolved in the mobile phase (MeOH: HCOONH4-1:9). The sample was washed with a methanol gradient (10-90%, 35 min) at pH 4 and a flow rate of 0.3 ml/min. The absorbances of the components were detected in the UV region at 210-400 nm. The peak area of meta-topolin mesylate salt was 595 027. The standard was measured as shown in the Table 9 below, Obtained peak area was compared to area peaks measured at certain concentration and the final concentration of saturated solution was determined
Solubility of other cytokinin (CK) mesylates was also determined by this method and the concentrations of saturated solutions are given below in Table 10: […]

skin fibroblasts BJ = test: Cytotoxicity for non-cancer cells, resazurine reduction assay, BJ
Experimental: (§1) It is used for viability testing of both bacterial and eukaryotic cells. […] Cultivation medium was DMEM with 10% FBS. Before the experiment, the cells were subcultured for 2 weeks. For the cytotoxicity evaluation, the cells were trypsinized and pipetted into 96 well plates (5000 cells per well in 80 microliters). After 24 hours, 5× concentrated solutions of the tested compounds in the medium were added. […] IC50 values were calculated from dose response curves using drc library for R programming environment.

keratinocytes HaCaT = test: Cytotoxicity for non-cancer cells, resazurine reduction assay, HaCaT
Experimental: as §1

[4] = test system: MCF-7 (breast adenocarcinoma); test: In vitro cytotoxicity, Calcein AM assay, MCF7; format: cell-based; details: 3-day Calcein-AM assay
Source text: (§2) Because toxic compounds adversely affect cell metabolic processes, many standard cytotoxicity assays are based on measuring the rate of metabolism of various artificial substrates. The resulting product is then quantified, for example, by spectrometry. Assays can be easily modified for use in 96-well plates, A microtiter assay based on the quantification of Calcein AM metabolism was used to evaluate the cytotoxicity of cytokinins, for example meta-topolin, ortho-topolin, kinetin, BAP or its mesylate salts, but also a number of other cytokinin mesylate derivatives according to the invention. The test is widely used in drug screening programs and in chemosensitivity testing. In living cells, Calcein AM is enzymatically hydrolyzed and the accumulation of the resulting calcein is manifested by green fluorescence. […] These cells were maintained in standard DMEM or RPMI medium (Sigma, MO, USA) supplemented with heat-inactivated fetal bovine serum (10%) with 2 mM L-glutamine and penicillin-streptomycin (1%) under standard cell culture conditions (37° C., 5% CO2 in a humid environment) and subcultured two or three times a week using a standard trypsinization procedure. Approximately 10,000 cells in 80 μl of medium were seeded in a 96-well microtiter plate. After 12 hours of incubation, the compounds to be tested were added in 20 μl aliquots. Control cultures were treated with DMSO alone. […] After 72 hours of incubation, Calcein AM solution (Molecular Probes) was added to a final concentration of 1 μg/ml and the cells were incubated for another hour.
(§3) Cytoxicity of compounds was tested on panel of cell lines of different histogenetic and species origin.

[5] = test system: K562 (chronic myeloid leukemia); test: In vitro cytotoxicity, Calcein AM assay, K-562; format: cell-based; details: 3-day Calcein-AM assay
Source text: as §2, §3

[6] = test system: retinal epitelium cells ARPE-19; test: Cytotoxicity for non-cancer cells, resazurine reduction assay, ARPE-19
Experimental: as §1

[7] = test system: CEM (T-lymphoblastic leukemia); test: In vitro cytotoxicity, Calcein AM assay, CEM; format: cell-based; details: 3-day Calcein-AM assay
Source text: as §2, §3

[8] = test system: HL-60 (promyelocytic, leukemia); test: In vitro cytotoxicity, Calcein AM assay, HL60; format: cell-based; details: 3-day Calcein-AM assay
Source text: as §2, §3

[9] = Ex vitro, after four weeks of acclimatising in peat
[10] = In vitro, 10 μM cytokinin, 8 weeks
[11] = resazurin, 72 hour treatment, HaCaT
[12] = resazurin, 72 hour treatment, ARPE-19
[13] = resazurin, 72 hour treatment, BJ

| SMILES | activity (%) [10^−5 mol · l^−1 BAP = 100%] [2] | solubility thermodynamic [3] | activity (%) [10^−4 mol · l^−1 BAP = 100%] [1] | Cytotoxicity for Fibroblasts (GI20) BJ (skin fibroblasts BJ; human, 72 h) | Cytotoxicity for Fibroblasts (GI20) HaCaT (keratinocytes HaCaT; [11]) | Cytotoxicity for Fibroblasts (GI20) ARPE-19 [6, 12] | pIC50 [4] | pIC50 [7] | Cytotoxicity for Fibroblasts (GI20) BJ (skin fibroblasts BJ; [13]) | pIC50 [8] | other results |
| --- | --- | --- | --- | --- | --- | --- | --- | --- | --- | --- | --- |
| COc1cccc(CNc2ncnc3nc[nH]c23)c1.CS(=O)(=O)O [3MeOBAP mesylate, 6-(3-methoxybenzylamino)purine mesylate] | 83% | 47.5 mM |  |  |  |  |  |  |  |  | activity (%) [10^−4 mol · l^−1 BAP = 100%] ([1]; listed as 3-MeoBAP mesylate, mesylate): 125%; activity (%) [10^−4 mol · l^−1 BAP = 100%] ([1]; mesylate): 184%; Number of roots per plant (rose explants; [9]): 1.9; Overall length of plant (cm) (rose explants; [9]): 4.5 cm; Number of new shoots per explant (rose explants; [10]): 4.5; Number of roots per explant (rose explants; [10]): 0.0; Overall length of explant (cm) (rose explants; [10]): 0.0 cm; number of flowers per explant (rose explants; [10]): 0.02 |
| CS(=O)(=O)O.c1coc(CNc2ncnc3nc[nH]c23)c1 [Kinetin mesylate, 6-furfurylaminopurine mesylate] |  | 92.6 mM | 110.9% | >100 µM | >100 µM | >100 μM |  |  |  |  | pIC50 ([4]; Homo sapiens, MCF7, 72 h): < 3.78; pIC50 ([5]; Homo sapiens, K562, 72 h): < 3.78; pIC50 ([7]; 72 h): < 3.78 |
| CC(C)=CCNc1ncnc2[nH]cnc12.CS(=O)(=O)O [iP mesylate, N-3-(Methylbut-2-En-1-Yl)-9H-Purin-6-Amin Methanesulphonate] | 95% |  | 95% |  |  |  | < 3.78 | 3.89 |  |  | concentration with highest activity ([1]; chlorophyll retention, excised wheat leaf tips, 96 h dark): 10^−4 mol · l^−1; Cytotoxicity for Fibroblasts (GI20) BJ (skin fibroblasts BJ): 149.3 µM; Cytotoxicity for Fibroblasts (GI20) HaCaT (keratinocytes HaCaT): >100 µM; pIC50 [5]: 3.79; Cytotoxicity for Fibroblasts (GI20) ARPE-19 [6]: >100 μM; concentration with highest activity ([2]; tobacco callus fresh weight increase, four weeks): 10^−6 mol · l^−1 |
| CS(=O)(=O)O.Oc1ccccc1CNc1ncnc2nc[nH]c12 [oT mesylate, 6-(2-hydroxybenzylamino)purine mesylate] | 87% | 82.3 mM | 69% | >100 µM | >100 µM | >100 μM |  |  |  |  | pIC50 ([7]; mesylate): 4.05 |
| C/C(=C\CNc1ncnc2[nH]cnc12)CO.CS(=O)(=O)O [tZ mesylate, (E)-4-(9H-Purin-6-Ylamino)-2-Methybut-2-En-1-ol)Methanesulphonate] | 111% |  | 114% |  | >100 µM | >100 μM | < 3.78 | < 3.78 | >100 µM | < 3.78 |  |
| C/C(=C\CNc1ncnc2nc[nH]c12)CO [trans-zeatin (tZ), trans-zeatin] | 109% |  | 110% |  | >100 µM | >100 μM | < 3.78 | < 3.78 | >100 µM | < 3.78 |  |
